Our source for the Ki values is patent publication US20250213735A1, “NEUROPEPTIDE Y1 RECEPTOR (NPY1R) TARGETED THERAPEUTICS AND USES THEREOF” (Radionetics Oncology, Inc., priority 2023, published 2025).

pKi: −log10 of the molar value.

The assay deals with hNPY1R (Homo sapiens (Human), UniProt P25929). The experiment in a line: NPY1R binding assay (SK-N-MC membrane, [125I]-Peptide YY competition).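 Further: bound radioligand separated by filtration over GF/C filter plates and counted, Ki obtained by non-linear regression.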 Particulars: crude SK-N-MC membranes endogenously expressing NPY1R; [125I]-Peptide YY (human) 0.05 nM; 120 min at room temperature; read-out: hNPY1R binding Ki.
hNPY1R, sequence (P25929 whole entry): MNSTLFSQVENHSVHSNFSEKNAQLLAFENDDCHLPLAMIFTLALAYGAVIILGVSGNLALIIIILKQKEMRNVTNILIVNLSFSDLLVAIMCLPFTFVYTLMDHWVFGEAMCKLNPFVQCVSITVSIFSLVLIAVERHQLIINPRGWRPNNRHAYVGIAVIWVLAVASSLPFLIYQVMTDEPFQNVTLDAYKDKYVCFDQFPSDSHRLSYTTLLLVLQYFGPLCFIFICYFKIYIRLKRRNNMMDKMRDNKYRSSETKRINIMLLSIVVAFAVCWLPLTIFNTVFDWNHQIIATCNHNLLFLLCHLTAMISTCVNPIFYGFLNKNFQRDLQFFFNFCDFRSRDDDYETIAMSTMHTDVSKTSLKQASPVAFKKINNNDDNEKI
For `CC1(C)C2CN([C@H](C(=O)N[C@H](CCCNC(=N)N)C(=O)NCc3ccc(O)cc3)c3ccccc3)CC21` (stereo partly drawn) [88A, (2R)-2-((2S)-2-(6,6-dimethyl-3-azabicyclo[3.1.0]hexan-3-yl)-2-phenylacetamido)-5-guanidino-N-(4-hydroxybenzyl)pentanamide], the pKi was 6.00 to 7.00. Regarding `CC1(C)C2CN([C@@H](C(=O)N[C@H](CCCNC(=N)N)C(=O)NCc3ccc(O)cc3)c3ccccc3)CC21` (stereo partly drawn) [88B, (2R)-2-((2R)-2-(6,6-dimethyl-3-azabicyclo[3.1.0]hexan-3-yl)-2-phenylacetamido)-5-guanidino-N-(4-hydroxybenzyl)pentanamide], the pKi is less than 6.00. On to `CCC(=O)NCCNC(=O)/N=C(/N)NCCC[C@@H](NC(=O)[C@H](c1cccc(NCCCNc2c(NCCCCCCNC(=O)CN3CCN(CC(=O)O)CCN(CC(=O)O)CCN(CC(=O)O)CC3)c(=O)c2=O)c1)N1Cc2ccccc2C1)C(=O)NCc1ccc(O)cc1` [compound 2, 2,2′,2″-(10-(2-((6-((2-((3-((3-((1S,4R,Z)-9-amino-4-((4-hydroxybenzyl)carbamoyl)-1-(isoindolin-2-yl)-2,11,16-trioxo-3,8,10,12,15-pentaazaoctadec-9-en-1-yl)phenyl)amino)propyl)amino)-3,4-dioxocyclobut-1-en-1-yl)amino)hexyl)amino)-2-oxoethyl)-1,4,7,10-tetraazacyclododecane-1,4,7-triyl)triacetic acid-formic acid (1/1)], for which the pKi was greater than 8.00. On to `CCC(=O)NCCNC(=O)/N=C(/N)NCCC[C@@H](NC(=O)[C@H](c1ccc(OCCCN2CCN(C(=O)CCNC(=O)CN3CCN(CC(=O)O)CCN(CC(=O)O)CCN(CC(=O)O)CC3)CC2)cc1)N1Cc2ccccc2C1)C(=O)NCc1c(F)cc(O)cc1F` [compound 4, 2,2′,2″-(10-(2-((3-(4-(3-(4-((1S,4R,Z)-9-amino-4-((2,6-difluoro-4-hydroxybenzyl)carbamoyl)-1-(isoindolin-2-yl)-2,11,16-trioxo-3,8,10,12,15-pentaazaoctadec-9-en-1-yl)phenoxy)propyl)piperazin-1-yl)-3-oxopropyl)amino)-2-oxoethyl)-1,4,7,10-tetraazacyclododecane-1,4,7-triyl)triacetic acid-2,2,2-trifluoroacetic acid (1/1)], for which the pKi was greater than 8.00. As to `CCC(=O)NCCNC(=O)/N=C(/N)NCCC[C@@H](NC(=O)[C@H](c1ccc(OCCCNC2CCN(C(=O)CCCCCNC(=O)CN3CCN(CC(=O)O)CCN(CC(=O)O)CCN(CC(=O)O)CC3)CC2)cc1)N1Cc2ccccc2C1)C(=O)NCc1c(F)cc(O)cc1F` [compound 5, 2,2′,2″-(10-(2-((6-(4-((3-(4-((1S,4R,Z)-9-amino-4-((2,6-difluoro-4-hydroxybenzyl)carbamoyl)-1-(isoindolin-2-yl)-2,11,16-trioxo-3,8,10,12,15-pentaazaoctadec-9-en-1-yl)phenoxy)propyl)amino)piperidin-1-yl)-6-oxohexyl)amino)-2-oxoethyl)-1,4,7,10-tetraazacyclododecane-1,4,7-triyl)triacetic acid-2,2,2-trifluoroacetic acid (1/1)], the pKi was greater than 8.00. The result for `CCC(=O)NCCNC(=O)/N=C(/N)NCCC[C@@H](NC(=O)[C@H](c1ccc(OCCCNC(=O)C[C@H](O)C[C@H](O)CCNC(=O)CN2CCN(CC(=O)O)CCN(CC(=O)O)CCN(CC(=O)O)CC2)cc1)N1Cc2ccccc2C1)C(=O)NCc1c(F)cc(O)cc1F` [compound 6, 2,2′,2″-(10-(2-(((3R,5R)-7-((3-(4-((1S,4R,Z)-9-amino-4-((2,6-difluoro-4-hydroxybenzyl)carbamoyl)-1-(isoindolin-2-yl)-2,11,16-trioxo-3,8,10,12,15-pentaazaoctadec-9-en-1-yl)phenoxy)propyl)amino)-3,5-dihydroxy-7-oxoheptyl)amino)-2-oxoethyl)-1,4,7,10-tetraazacyclododecane-1,4,7-triyl)triacetic acid-2,2,2-trifluoroacetic acid (1/1)] reads greater than 8.00.

The pKi is the Ki on a negative log10 scale, so that one unit is a factor of ten.
